Measurements as given in PMC7806935, “Exosite inhibition of ADAMTS-5 by a glycoconjugated arylsulfonamide” (Scientific Reports, 2021).

Biological target: T1, ADAMTS-5 MDTCS (Homo sapiens, UniProt Q9UNA0)
T1 construct: ADAMTS-5 MDTCS (lacking the C-terminal TS motif but retaining full versicanase activity); made in house; host or cells: HEK293T
T1 sequence (Q9UNA0 262-874 limits assumed): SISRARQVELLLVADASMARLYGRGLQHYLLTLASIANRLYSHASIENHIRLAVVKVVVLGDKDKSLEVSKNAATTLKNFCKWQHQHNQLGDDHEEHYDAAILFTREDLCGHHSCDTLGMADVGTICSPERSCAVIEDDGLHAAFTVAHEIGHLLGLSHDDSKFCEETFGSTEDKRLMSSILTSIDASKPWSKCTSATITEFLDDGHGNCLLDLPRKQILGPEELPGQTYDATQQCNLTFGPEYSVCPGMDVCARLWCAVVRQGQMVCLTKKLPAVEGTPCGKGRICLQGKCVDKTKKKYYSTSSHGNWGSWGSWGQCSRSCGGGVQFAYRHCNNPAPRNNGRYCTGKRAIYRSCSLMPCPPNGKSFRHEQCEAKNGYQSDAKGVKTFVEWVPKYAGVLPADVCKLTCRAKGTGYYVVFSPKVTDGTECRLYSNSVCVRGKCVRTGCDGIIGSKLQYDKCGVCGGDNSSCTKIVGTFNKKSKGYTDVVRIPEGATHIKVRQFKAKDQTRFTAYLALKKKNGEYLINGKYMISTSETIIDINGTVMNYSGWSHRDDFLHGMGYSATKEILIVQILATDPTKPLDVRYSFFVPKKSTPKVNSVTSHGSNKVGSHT
Test: Dual inhibition study (GM6001 with or without 4b, QF peptide cleavage)
Type: biochemical
Protocol: Figure 3 Compound 4b binds to the ADAMTS-5 Mp/Dis domains in the presence of GM6001. (A, B) Compound 4b inhibits versicanase activity of both full-length (FL) ADAMTS-5 and its variant containing only the Mp/Dis domains (ADAMTS-5 MD). Compound 4b (100 μM) or DMSO was incubated either with ADAMTS-5 FL (0.2 nM, A) or ADAMTS-5 MD (26 nM, B) for 2 h at 37 °C before addition of V1-5GAG (50 nM). At each time point, reactions were stopped by addition of EDTA and versikine fragments quantified by sandwich ELISA as reported in the Methods section. In the DMSO control, complete proteolysis was achieved after 7200 s. […]
QF peptide cleavage assays were conducted in 96-well black microtiter plates (Scientific Laboratories Supplies Ltd, Wilford, UK) using a Fluostar Omega microplate reader (BMG Labtech, Aylesbury, UK). The activity of ADAMTS-4 (1 nM) and -5 (5 nM) was monitored for 2 h using the fluorescent peptide substrates fluorescein 5(6)-carbonyl-Ala-Glu-Leu-[…]-Gly-Arg-Pro-Ile-Ser-Ile-Ala-Lys-N,N,N0,N0-tetramethyl-6-carboxyrhodamine-NH2 (FAM-AE ~ LQGRPISIAK-TAMRA, ADAMTS-4) and fluorescein 5(6)-carbonyl-Thr-Glu-Ser-Glu ~ Ser-Arg-Gly-Ala-Ile-Tyr-Lys-Lys-N,N,N0,N0-tetramethyl-6-carboxyrhodamine-NH2 (FAM-TESE ~ SRGAIYKK-TAMRA, ADAMTS-5) (custom-synthesized by Bachem, Bubendorf, Switzerland) with an excitation wavelength of 485 nm and an emission wavelength of 538 nm. […]

With CNC(=O)[C@H](Cc1c[nH]c2ccccc12)NC(=O)[C@@H](CC(=O)NO)CC(C)C [GM6001] the IC50 (QF peptide, DMSO, no 4b, read-out: IC50^− (in the absence of 4b)) was 370 ± 90 nM and the “IC50^+/IC50^−” value (ratio with/without 10 μM 4b, < 1 synergistic) was 0.043.
